In patent US12077503B2, “Substituted cyclic amides and their use as herbicides” (FMC CORPORATION, priority 2015, dated 2024):

What was measured:
Assay type in all cases: in vivo
[1] = tested on: barnyardgrass (Echinochloa crus-galli); assay: Test G Post-Emergence Protocol; conditions: Echinochloa crus-galli, post-emergence, 312 h
How it was run: (§1)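 Post-emergence herbicidal damage, scored visually 0–100 at 13 days. Application at 15.625, 62.5 or 250 g/ha onto 8-day-old plants grown under glasshouse control.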

corn (Zea mays) [2] = assay: Test G Post-Emergence Protocol; conditions: Zea mays, post-emergence, 312 h
How it was run: as §1

[3] = tested on: redroot pigweed (Amaranthus retroflexus); assay: Test G Post-Emergence Protocol; conditions: Amaranthus retroflexus, post-emergence, 312 h
How it was run: as §1

[4] = tested on: velvetleaf (Abutilon theophrasti); assay: Test G Post-Emergence Protocol; conditions: Abutilon theophrasti, post-emergence, 312 h
How it was run: as §1

[5] = tested on: giant foxtail (Setaria faberi); assay: Test G Post-Emergence Protocol; conditions: Setaria faberi, post-emergence, 312 h
How it was run: as §1

[6] = tested on: ivy-leaved morning glory (Ipomoea hederacea); assay: Test G Post-Emergence Protocol; conditions: Ipomoea, post-emergence, 312 h
How it was run: as §1

[7] = tested on: barnyardgrass (Echinochloa crus-galli); assay: Test G Pre-Emergence Protocol; conditions: Echinochloa crus-galli, pre-emergence, 312 h, evaluated after 13 days
How it was run: (§2)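 Test compound in 0.5% Tween 20 acetone/water (50:50) was applied at three rates (15.625, 62.5, 250 g/ha) to soil sown one day earlier. After 13 days plants were scored for injury, where 0 means unaffected and 100 means completely damaged.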

corn (Zea mays) [8] = assay: Test G Pre-Emergence Protocol; conditions: Zea mays, pre-emergence, 312 h, evaluated after 13 days
How it was run: as §2

[9] = tested on: redroot pigweed (Amaranthus retroflexus); assay: Test G Pre-Emergence Protocol; conditions: Amaranthus retroflexus, pre-emergence, 312 h, evaluated after 13 days
How it was run: as §2

[10] = tested on: velvetleaf (Abutilon theophrasti); assay: Test G Pre-Emergence Protocol; conditions: Abutilon theophrasti, pre-emergence, 312 h, evaluated after 13 days
How it was run: as §2

[11] = tested on: giant foxtail (Setaria faberi); assay: Test G Pre-Emergence Protocol; conditions: Setaria faberi, pre-emergence, 312 h, evaluated after 13 days
How it was run: as §2

[12] = tested on: ivy-leaved morning glory (Ipomoea hederacea); assay: Test G Pre-Emergence Protocol; conditions: Ipomoea, pre-emergence, 312 h, evaluated after 13 days
How it was run: as §2

## CN1C[C@@H](c2ccc(C(F)(F)F)cc2)[C@H](C(=O)Nc2cccc(Cl)c2C#N)C1=O (racemic) [Compound 1645]
[1]; 15.625 g ai/ha, evaluated after 13 days (100=total damage to plant; 0=no damage to plant), read-out: Barnyardgrass damage rating
  pest or weed control at 15.625 g/ha: 0%
[1]; 62.5 g ai/ha, evaluated after 13 days, read-out: Barnyardgrass damage rating (100=total damage to plant; 0=no damage to plant)
  pest or weed control at 62.5 g/ha: 20%
[1]; 250 g ai/ha, evaluated after 13 days, read-out: damage to plant, Barnyardgrass (100=total damage to plant; 0=no damage to plant)
  pest or weed control at 250 g/ha: 70%
Corn (Zea mays) [2]; 15.625 g ai/ha, evaluated after 13 days (100=total damage to plant; 0=no damage to plant), read-out: Corn damage rating
  plant injury at 15.625 g/ha: 0%
Corn (Zea mays) [2]; 62.5 g ai/ha, evaluated after 13 days, read-out: Corn damage rating (100=total damage to plant; 0=no damage to plant)
  plant injury at 62.5 g/ha: 0%
Corn (Zea mays) [2]; 250 g ai/ha, evaluated after 13 days, read-out: damage to plant, Corn (100=total damage to plant; 0=no damage to plant)
  plant injury at 250 g/ha: 0%
[3]; 15.625 g ai/ha, evaluated after 13 days (100=total damage to plant; 0=no damage to plant), read-out: Pigweed, Redroot damage rating
  pest or weed control at 15.625 g/ha: 0%
[3]; 62.5 g ai/ha, evaluated after 13 days, read-out: Pigweed, Redroot damage rating (100=total damage to plant; 0=no damage to plant)
  pest or weed control at 62.5 g/ha: 40%
[3]; 250 g ai/ha, evaluated after 13 days, read-out: damage to plant, Pigweed, Redroot (100=total damage to plant; 0=no damage to plant)
  pest or weed control at 250 g/ha: 40%
[4]; 15.625 g ai/ha, evaluated after 13 days (100=total damage to plant; 0=no damage to plant), read-out: Velvetleaf damage rating
  pest or weed control at 15.625 g/ha: 0%
[4]; 62.5 g ai/ha, evaluated after 13 days, read-out: Velvetleaf damage rating (100=total damage to plant; 0=no damage to plant)
  pest or weed control at 62.5 g/ha: 0%
[4]; 250 g ai/ha, evaluated after 13 days, read-out: damage to plant, Velvetleaf (100=total damage to plant; 0=no damage to plant)
  pest or weed control at 250 g/ha: 0%
[5]; 15.625 g ai/ha, evaluated after 13 days (100=total damage to plant; 0=no damage to plant), read-out: Foxtail, Giant damage rating
  pest or weed control at 15.625 g/ha: 0%
[5]; 62.5 g ai/ha, evaluated after 13 days, read-out: Foxtail, Giant damage rating (100=total damage to plant; 0=no damage to plant)
  pest or weed control at 62.5 g/ha: 70%
[5]; 250 g ai/ha, evaluated after 13 days, read-out: damage to plant, Foxtail, Giant (100=total damage to plant; 0=no damage to plant)
  pest or weed control at 250 g/ha: 80%
[6]; 15.625 g ai/ha, evaluated after 13 days (100=total damage to plant; 0=no damage to plant), read-out: Morningglory, Ivy-leaved damage rating
  pest or weed control at 15.625 g/ha: 0%
[6]; 62.5 g ai/ha, evaluated after 13 days, read-out: Morningglory, Ivy-leaved damage rating (100=total damage to plant; 0=no damage to plant)
  pest or weed control at 62.5 g/ha: 0%
[6]; 250 g ai/ha, evaluated after 13 days, read-out: damage to plant, Morningglory, Ivy-leaved (100=total damage to plant; 0=no damage to plant)
  pest or weed control at 250 g/ha: 0%
[7]; 15.625 g ai/ha, read-out: Barnyard grass damage rating (100=total damage to plant; 0=no damage to plant)
  pest or weed control at 15.625 g/ha: 0%
[7]; 62.5 g ai/ha, 100=total damage to plant, 0=no damage to plant, read-out: plant damage rating, Barnyardgrass
  pest or weed control at 62.5 g/ha: 40%
[7]; 250 g ai/ha, read-out: Barnyardgrass damage rating (100=total damage to plant; 0=no damage to plant)
  pest or weed control at 250 g/ha: 50%
Corn (Zea mays) [8]; 15.625 g ai/ha, read-out: Corn damage rating (100=total damage to plant; 0=no damage to plant)
  plant injury at 15.625 g/ha: 0%
Corn (Zea mays) [8]; 62.5 g ai/ha, 100=total damage to plant, 0=no damage to plant, read-out: plant damage rating, Corn
  plant injury at 62.5 g/ha: 0%
Corn (Zea mays) [8]; 250 g ai/ha, read-out: Corn damage rating (100=total damage to plant; 0=no damage to plant)
  plant injury at 250 g/ha: 0%
[9]; 15.625 g ai/ha, read-out: Pigweed, Redroot damage rating (100=total damage to plant; 0=no damage to plant)
  pest or weed control at 15.625 g/ha: 0%
[9]; 62.5 g ai/ha, 100=total damage to plant, 0=no damage to plant, read-out: plant damage rating, Pigweed, Redroot
  pest or weed control at 62.5 g/ha: 10%
[9]; 250 g ai/ha, read-out: Pigweed, Redroot damage rating (100=total damage to plant; 0=no damage to plant)
  pest or weed control at 250 g/ha: 10%
[10]; 15.625 g ai/ha, read-out: Velvetleaf damage rating (100=total damage to plant; 0=no damage to plant)
  pest or weed control at 15.625 g/ha: 0%
[10]; 62.5 g ai/ha, 100=total damage to plant, 0=no damage to plant, read-out: plant damage rating, Velvetleaf
  pest or weed control at 62.5 g/ha: 0%
[10]; 250 g ai/ha, read-out: Velvetleaf damage rating (100=total damage to plant; 0=no damage to plant)
  pest or weed control at 250 g/ha: 10%
[11]; 15.625 g ai/ha, read-out: Foxtail, Giant damage rating (100=total damage to plant; 0=no damage to plant)
  pest or weed control at 15.625 g/ha: 0%
[11]; 62.5 g ai/ha, 100=total damage to plant, 0=no damage to plant, read-out: plant damage rating, Foxtail, Giant
  pest or weed control at 62.5 g/ha: 30%
[11]; 250 g ai/ha, read-out: Foxtail, Giant damage rating (100=total damage to plant; 0=no damage to plant)
  pest or weed control at 250 g/ha: 60%
[12]; 15.625 g ai/ha, read-out: Morning-glory, Ivy-leaved damage rating (100=total damage to plant; 0=no damage to plant)
  pest or weed control at 15.625 g/ha: 0%
[12]; 62.5 g ai/ha, 100=total damage to plant, 0=no damage to plant, read-out: plant damage rating, Morningglory, Ivy-leaved
  pest or weed control at 62.5 g/ha: 0%
[12]; 250 g ai/ha, read-out: Morningglory, Ivy-leaved damage rating (100=total damage to plant; 0=no damage to plant)
  pest or weed control at 250 g/ha: 0%
